Measurements from US20260193647A1, “MIRNA-BASED CANCER THERAPY WITH A TUMOR-NAVIGATING PEPTIDE” (The Board of Trustees of the Universities of Illinois, priority 2022, published 2026).
Ends that are not written are not given here.

Tests used:
SJ-GBM2 cells = experiment: cells; settings: Homo sapiens, 24 h, read-out: IC50 (cell viability)
Procedure: (§1) Cell viability was evaluated by a CCK-8 assay (Dojindo, Japan). Cells were seeded at a density of 4,000 cells per well in 100 μl of growth medium in 96-well plates and grown overnight. Then, the cells were exposed to antisense miR-20a alone, p28 alone or negative control or AmiR20-p28 over a range of concentrations and incubated for 24 hr. According to the manufacturer's instructions, 10 μl of CCK-8 solution was added to each well, followed by incubation for 1 hr at 37° C. The absorbance at 450 nm was determined by a multiplate reader.
(§2) Cell viability (%)=Abs(sample)−Abs(blank)/Abs(no treatment)−Abs(blank)×100

miR21 = miR21 expression by qPCR in treated cells; assay type: cell-based, human
[1] = human, in vivo; cited from earlier work
miR-20a = miR-20a expression levels by stem loop qPCR in treated cells; assay type: cell-based, human; settings: any of the cell lines tested; administered alone, 10 nM, 24 hr
From the text: Micro RNA enriched fraction was extracted using the miRNeasy Mini Kit (Qiagen, Catalog #217004) following the manufacturer's instructions. Stem loop real-time qPCR was used to analyze miRNA expression. We designed miR-20a stem loop RT primers and amplification primers according to a previously described method 79. cDNA was synthesized from extracted RNA using unique stem loop RT primers. The sequence of the stem loop primer for miR-20a was 5′-[…]-3′ (SEQ ID NO:7). Reverse transcriptase reactions contained the following reagents: 10 ng of RNA sample, 60 nM stem-loop RT primer, 1×RT buffer, 0.25 mM dNTP, and 4 U/μl reverse transcriptase. Reactions were performed by incubation at 16° C. for 30 min, 42° C. for 30 min and 85° C. for 5 min. Real-time PCR (7300 Real time PCR Systems, Applied Biosystems, CA) was performed using the specific forward primer for miR-20a (5′-[…]-3′ (SEQ ID NO:8)) and a universal reverse primer (5′-GTGCA GGGTC CGAGGT-3′ (SEQ ID NO:9)). The 20-μl PCR mixture included 1×SYBR Premix (Invitrogen), 2 μl of RT products and each forward and reverse primer at 10 nM. Reactions were performed by incubation in a 96-well plate at 95° C. for 30 sec, followed by 35 cycles of 95° C. for 30 sec and 60° C. for 30 sec. U6 was used as an internal control to normalize the level of target miRNAs. The results were verified by performing PCR using M13 modified forward and reverse primers specific to stem loop sequence. The PCR products were visualized in 2% agarose gels and DNA-sequence was confirmed. Human tumor and serum samples were obtained from patients who had signed informed consent and the institutional review board approval was obtained in Pediatric Brain Tumor Consortium (PBTC-041) participating sites.

[2] = test system: SJ-GBM2 cells, CHLA-200 cells and astrocytes; experiment: Cellular entry by confocal microscopy; assay type: cell-based, human; settings: 20 μM Alexa Fluor labeled, 2 hr, 37° C.; pGBM cells vs normal astrocytes
Procedure: p28 or AmiR20-p28 were dissolved in PBS mixed with Alexa Fluor 568 dye (Invitrogen) at a 1:2 peptide/dye ratio 37. Sodium bicarbonate (pH 8.5) was added and incubated at 4° C. with continuous stirring. Alexa Fluor 568 labeled p28 and AmiR20-p28 were dialyzed against cold-PBS using Slide-A-Lyzer Dialysis Cassettes (Pierce Biotechnology). Similarly, p28 was labeled with ICG as described previously.
SJ-GBM2 cells, CHLA-200 cells and astrocytes (2×10^4 cells/well) were cultured on glass slides placed in 24-well plates. After overnight culture, the cells were washed with PBS and incubated with 20 μM Alexa Fluor 568-labeled p28 peptide in medium (5% FBS and without phenol red) for 2 hr at 37° C. Cells were fixed with 2% formalin for 10 min. After washing, slides were prepared and mounted with Vectashield with DAPI (Vector Laboratories, Catalog #94010). Slides were examined by an LSM 710 confocal laser scanning microscope (Zeiss). Images were processed using ZEN software (ZEISS ZEN Lite). As for a GSC marker, the slides were first incubated with Alexa Fluor 568-labeled AmiR20-p28 for 2 hr at 37° C. Cells were fixed with 2% formalin for 10 min. After washing, slides were incubated with blocking buffer for 1 hr at room temperature, followed by consecutive staining with anti-CD133 antibody (1:500, R&D Systems FAB11331G). Slides were washed and mounted with Vectashield containing DAPI. […]

[3] = test system: SJ-GBM2, CHLA-200, LN-229 and astrocytes; experiment: CCK-8 cell viability assay, set of cell lines tested; assay type: cell-based, human; settings: component alone; 24 hr
Procedure: as §1, §2

Cn1nnc2c(C(N)=O)ncn2c1=O [TMZ, temozolomide]
IC50 (SJ-GBM2 cells): ~600 µM

AmiR21-p28: cell-penetrating peptide p28 chemically conjugated to antisense-miR21 (LSTAADMQGVVTDGMASGLDKDYLKPDD; also: chemically conjugated to antisense miR-21, site not given here; UniProt P00282 70-97, looked up, fragment)
endogenous miR21 (miR21; pGBM and aGBM cells, Ten nM): significantly reduced the endogenous miR21

p28: CPP derived from Pseudomonas aeruginosa azurin that preferentially enters cancer cells; carrier component tested alone [reference compound]
reduction of miR21 (miR21; any cell lines tested, component alone): did not induce a significant reduction of miR21 | tolerability in patients [1]: well tolerated without apparent adverse effects, toxicity, or immunogenicity | inhibitory effect on miR-20a expression (miR-20a): did not have a significant inhibitory effect | cellular entry (confocal images) [2]: preferentially penetrated | inhibitory effect on cell viability [3]: neither p28 nor AmiR20, alone had an inhibitory effect on cell viability
